According to ChEMBL document CHEMBL1909046, “DrugMatrix in vitro pharmacology data”:

Tests used:
Adenosine receptor A2a = Adenosine receptor A2a (Homo sapiens, UniProt P29274); assay: DRUGMATRIX: Adenosine A2A radioligand binding (ligand: […]); assay type: cell membranes, HEK293, Membrane; conditions: hek293; Not Active = under 50% inhibition at 10 µM
Glycine receptor = Glycine receptor (Rattus norvegicus, UniProt P22771+P24524+P07727+P20781); assay type: cell membranes, Wistar, Spinal cord, Membrane; note: in other assays of this panel Not Active means under 50% inhibition at 10 µM
[1] = DRUGMATRIX: Phorbol Ester radioligand binding (ligand: [3H] PDBu); assay type: cell membranes, Mus musculus, ICR, Brain, Membrane; conditions: Not Active = under 50% inhibition at 10 µM
Leukotriene C4 synthase = target: T1, Leukotriene C4 synthase (Cavia porcellus, UniProt A6XA80); assay type: tissue-based, Lung;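 note: enzyme inhibition assay of leukotriene C4 synthase, using LTA4 as the substrate; in other assays of this panel Not Active means under 50% inhibition at 10 µM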
T1 sequence (A6XA80 whole entry): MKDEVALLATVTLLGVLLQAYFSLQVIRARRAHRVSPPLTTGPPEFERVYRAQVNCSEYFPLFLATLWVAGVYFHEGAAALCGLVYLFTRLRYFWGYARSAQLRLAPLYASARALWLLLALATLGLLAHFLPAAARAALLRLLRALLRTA

B2 bradykinin receptor = target: T2, B2 bradykinin receptor (Homo sapiens, UniProt P30411); assay type: cell membranes, Membrane; conditions: chem-1; note: in other assays of this panel Not Active means under 50% inhibition at 10 µM
T2 sequence (P30411 whole entry): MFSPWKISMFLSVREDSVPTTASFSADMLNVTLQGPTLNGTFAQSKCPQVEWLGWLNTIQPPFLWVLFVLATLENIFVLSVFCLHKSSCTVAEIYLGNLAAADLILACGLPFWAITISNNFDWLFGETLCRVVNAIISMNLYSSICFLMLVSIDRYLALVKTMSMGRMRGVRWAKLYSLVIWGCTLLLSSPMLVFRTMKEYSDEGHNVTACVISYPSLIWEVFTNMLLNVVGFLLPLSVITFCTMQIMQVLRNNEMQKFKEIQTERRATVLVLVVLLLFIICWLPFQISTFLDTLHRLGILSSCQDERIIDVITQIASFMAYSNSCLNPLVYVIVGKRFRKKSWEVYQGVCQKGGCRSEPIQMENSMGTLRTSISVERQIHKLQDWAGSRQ

[2] = target: T3, 5-hydroxytryptamine receptor 1A (Rattus norvegicus, UniProt P19327); assay type: cell membranes, CHO-K1, Membrane; note: in other assays of this panel Not Active means under 50% inhibition at 10 µM
T3 sequence (P19327 whole entry): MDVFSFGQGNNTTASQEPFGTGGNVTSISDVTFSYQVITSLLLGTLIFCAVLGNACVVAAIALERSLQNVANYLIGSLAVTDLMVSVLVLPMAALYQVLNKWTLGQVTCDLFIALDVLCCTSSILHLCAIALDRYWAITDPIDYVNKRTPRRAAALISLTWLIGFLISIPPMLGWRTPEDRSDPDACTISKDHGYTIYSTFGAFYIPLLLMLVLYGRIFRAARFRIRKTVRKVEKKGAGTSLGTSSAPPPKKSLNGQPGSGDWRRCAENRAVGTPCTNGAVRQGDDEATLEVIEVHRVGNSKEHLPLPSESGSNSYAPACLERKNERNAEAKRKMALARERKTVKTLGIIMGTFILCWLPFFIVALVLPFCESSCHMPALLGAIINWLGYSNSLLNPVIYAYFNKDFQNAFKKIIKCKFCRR

Cytochrome P450 2C9 = Cytochrome P450 2C9 (Homo sapiens, UniProt P11712); conditions: bti-tn-5b1-4; note: in other assays of this panel Not Active means under 50% inhibition at 10 µM
Cytochrome P450 2C9, sequence (P11712 whole entry): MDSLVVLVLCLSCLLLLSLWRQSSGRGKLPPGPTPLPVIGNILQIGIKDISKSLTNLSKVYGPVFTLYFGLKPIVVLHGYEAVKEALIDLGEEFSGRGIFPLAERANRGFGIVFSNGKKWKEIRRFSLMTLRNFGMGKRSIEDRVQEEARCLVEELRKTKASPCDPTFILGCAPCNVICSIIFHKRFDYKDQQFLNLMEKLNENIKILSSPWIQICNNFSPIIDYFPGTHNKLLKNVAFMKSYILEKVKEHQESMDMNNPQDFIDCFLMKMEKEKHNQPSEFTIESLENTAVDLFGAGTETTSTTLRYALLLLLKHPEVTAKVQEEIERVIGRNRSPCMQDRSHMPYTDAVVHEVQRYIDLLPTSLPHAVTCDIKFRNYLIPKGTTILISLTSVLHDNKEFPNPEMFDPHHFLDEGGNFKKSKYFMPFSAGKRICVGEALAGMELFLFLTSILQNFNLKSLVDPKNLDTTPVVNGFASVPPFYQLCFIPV

Adenosine receptor A2a, sequence (P29274 whole entry): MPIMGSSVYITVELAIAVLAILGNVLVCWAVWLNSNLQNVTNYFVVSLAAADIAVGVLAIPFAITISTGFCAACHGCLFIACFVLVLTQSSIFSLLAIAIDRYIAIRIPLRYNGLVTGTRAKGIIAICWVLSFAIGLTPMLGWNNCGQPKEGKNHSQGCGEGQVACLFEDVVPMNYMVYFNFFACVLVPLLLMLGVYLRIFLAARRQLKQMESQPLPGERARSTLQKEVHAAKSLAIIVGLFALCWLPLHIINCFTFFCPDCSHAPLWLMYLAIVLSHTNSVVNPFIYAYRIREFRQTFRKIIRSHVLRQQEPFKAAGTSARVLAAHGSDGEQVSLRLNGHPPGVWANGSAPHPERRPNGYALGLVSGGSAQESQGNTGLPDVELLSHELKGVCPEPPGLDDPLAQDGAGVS

**Q.** For `CCOc1nc2cccc(C(=O)O)c2n1Cc1ccc(-c2ccccc2-c2nnn[nH]2)cc1`, which IC50 (Adenosine receptor A2a) is on record?
**A.** Not Active

**Q.** And the IC50 (Glycine receptor)?
**A.** Not Active

**Q.** What about the IC50 [1] of the same compound?
**A.** Not Active

**Q.** And the Ki [1]?
**A.** Not Active

**Q.** What about the IC50 (Leukotriene C4 synthase) of the same compound?
**A.** Not Active

**Q.** What about the IC50 (B2 bradykinin receptor) of the same compound?
**A.** Not Active

**Q.** And the IC50 ([2]; cho-k1)?
**A.** Not Active

**Q.** For `O=C(O)CCCc1cccs1`, which IC50 (Adenosine receptor A2a) is on record?
**A.** Not Active

**Q.** What about the IC50 (Glycine receptor) of the same compound?
**A.** Not Active

**Q.** What about the IC50 [1] of the same compound?
**A.** Not Active

**Q.** What about the Ki [1] of the same compound?
**A.** Not Active

**Q.** And the IC50 (Cytochrome P450 2C9)?
**A.** Not Active

**Q.** What about the Ki (Cytochrome P450 2C9) of the same compound?
**A.** Not Active

**Q.** And the IC50 (Leukotriene C4 synthase)?
**A.** Not Active

**Q.** What about the IC50 (B2 bradykinin receptor) of the same compound?
**A.** Not Active

**Q.** And the IC50 ([2]; cho-k1)?
**A.** Not Active

**Q.** Which results are given for `COc1ccccc1N`?
**A.** IC50 (Adenosine receptor A2a): Not Active; IC50 (Glycine receptor): Not Active; IC50 [1]: Not Active; Ki [1]: Not Active; IC50 (Cytochrome P450 2C9): Not Active; Ki (Cytochrome P450 2C9): Not Active; IC50 (Leukotriene C4 synthase): Not Active; IC50 (B2 bradykinin receptor): Not Active; IC50 ([2]; cho-k1): Not Active

**Q.** For `O=C(c1ccccc1F)N1CCC(Cc2ccccc2)CC1`, which IC50 (Adenosine receptor A2a) is on record?
**A.** Not Active

**Q.** And the IC50 (Glycine receptor)?
**A.** Not Active

**Q.** What about the IC50 [1] of the same compound?
**A.** Not Active

**Q.** And the Ki [1]?
**A.** Not Active

**Q.** And the IC50 (Leukotriene C4 synthase)?
**A.** Not Active

**Q.** What about the IC50 (B2 bradykinin receptor) of the same compound?
**A.** Not Active

**Q.** What about the IC50 ([2]; cho-k1) of the same compound?
**A.** Not Active

**Q.** Which results are given for `Cc1c(O)cccc1C(=O)N[C@@H](CSc1ccccc1)[C@H](O)CN1C[C@H]2CCCC[C@H]2C[C@H]1C(=O)NC(C)(C)C`?
**A.** IC50 (Adenosine receptor A2a): Not Active; IC50 (Glycine receptor): Not Active; IC50 [1]: Not Active; Ki [1]: Not Active; IC50 (Cytochrome P450 2C9): Not Active; Ki (Cytochrome P450 2C9): Not Active; IC50 (Leukotriene C4 synthase): Not Active; IC50 (B2 bradykinin receptor): Not Active; IC50 ([2]; cho-k1): Not Active

**Q.** Which IC50 (Adenosine receptor A2a) does the source give for `CC(O)COC[C@H]1O[C@@H]2O[C@H]3[C@H](O)[C@@H](O)[C@@H](O[C@H]4[C@H](O)[C@@H](O)[C@@H](O[C@H]5[C@H](O)[C@@H](O)[C@@H](O[C@H]6[C@H](O)[C@@H](O)[C@@H](O[C@H]7[C@H](O)[C@@H](O)[C@@H](O[C@H]8[C@H](O)[C@@H](O)[C@@H](O[C@H]1[C@H](O)[C@H]2O)O[C@@H]8COCC(C)O)O[C@@H]7COCC(C)O)O[C@@H]6COCC(C)O)O[C@@H]5COCC(C)O)O[C@@H]4COCC(C)O)O[C@@H]3COCC(C)O` (stereo partly drawn) [2-HYDROXYPROPYL-BETA-CYCLODEXTRIN] here?
**A.** Not Active

**Q.** And the IC50 (Glycine receptor)?
**A.** Not Active

**Q.** What about the IC50 [1] of the same compound?
**A.** Not Active

**Q.** And the Ki [1]?
**A.** Not Active

**Q.** And the IC50 (Cytochrome P450 2C9)?
**A.** Not Active

**Q.** And the Ki (Cytochrome P450 2C9)?
**A.** Not Active

**Q.** And the IC50 (Leukotriene C4 synthase)?
**A.** Not Active

**Q.** And the IC50 (B2 bradykinin receptor)?
**A.** Not Active

**Q.** And the IC50 ([2]; cho-k1)?
**A.** Not Active

**Q.** For `NC(=O)c1cccc(N)c1` [3-AMINOBENZAMIDE], which IC50 (Adenosine receptor A2a) is on record?
**A.** Not Active

**Q.** And the IC50 (Glycine receptor)?
**A.** Not Active

**Q.** What about the IC50 [1] of the same compound?
**A.** Not Active

**Q.** What about the Ki [1] of the same compound?
**A.** Not Active

**Q.** And the IC50 (Cytochrome P450 2C9)?
**A.** Not Active

**Q.** And the Ki (Cytochrome P450 2C9)?
**A.** Not Active

**Q.** And the IC50 (Leukotriene C4 synthase)?
**A.** Not Active

**Q.** What about the IC50 (B2 bradykinin receptor) of the same compound?
**A.** Not Active

**Q.** And the IC50 ([2]; cho-k1)?
**A.** Not Active

**Q.** Which results are given for `C[C@H]1O[C@H](O[C@H]2[C@H](O)[C@@H](O)[C@@H](O[C@H]3[C@H](O)[C@@H](O)C(O)O[C@@H]3CO)O[C@@H]2CO)[C@H](O)[C@@H](O)[C@@H]1N[C@H]1C=C(CO)[C@@H](O)[C@H](O)[C@H]1O` (stereo partly drawn) [ACARBOSE]?
**A.** IC50 (Adenosine receptor A2a): Not Active; IC50 (Glycine receptor): Not Active; IC50 [1]: Not Active; Ki [1]: Not Active; IC50 (Cytochrome P450 2C9): Not Active; Ki (Cytochrome P450 2C9): Not Active; IC50 (Leukotriene C4 synthase): Not Active; IC50 (B2 bradykinin receptor): Not Active; IC50 ([2]; cho-k1): Not Active

**Q.** Which results are given for `CC[C@H]1[C@@H]2C[C@H]3[C@@H]4N(C)c5ccccc5[C@]45C[C@@H]([C@@H]2[C@H]5O)N3[C@@H]1O` [AJMALINE]?
**A.** IC50 (Adenosine receptor A2a): Not Active; IC50 (Glycine receptor): Not Active; IC50 [1]: Not Active; Ki [1]: Not Active; IC50 (Cytochrome P450 2C9): Not Active; Ki (Cytochrome P450 2C9): Not Active; IC50 (Leukotriene C4 synthase): Not Active; IC50 (B2 bradykinin receptor): Not Active; IC50 ([2]; cho-k1): Not Active

**Q.** Which IC50 (Adenosine receptor A2a) does the source give for `NC12CC3CC(CC(C3)C1)C2` [AMANTADINE] here?
**A.** Not Active

**Q.** What about the IC50 (Glycine receptor) of the same compound?
**A.** Not Active

**Q.** What about the IC50 [1] of the same compound?
**A.** Not Active

**Q.** What about the Ki [1] of the same compound?
**A.** Not Active

**Q.** What about the IC50 (Leukotriene C4 synthase) of the same compound?
**A.** Not Active

**Q.** And the IC50 (B2 bradykinin receptor)?
**A.** Not Active

**Q.** What about the IC50 ([2]; cho-k1) of the same compound?
**A.** Not Active

**Q.** Which results are given for `NCCCNCCSP(=O)(O)O` [AMIFOSTINE]?
**A.** IC50 (Adenosine receptor A2a): Not Active; IC50 (Glycine receptor): Not Active; IC50 [1]: Not Active; Ki [1]: Not Active; IC50 (Cytochrome P450 2C9): Not Active; Ki (Cytochrome P450 2C9): Not Active; IC50 (Leukotriene C4 synthase): Not Active; IC50 (B2 bradykinin receptor): Not Active; IC50 ([2]; cho-k1): Not Active

**Q.** For `CN(C)CCC=C1c2ccccc2CCc2ccccc21` [AMITRIPTYLINE], which IC50 (Adenosine receptor A2a) is on record?
**A.** Not Active

**Q.** And the IC50 (Glycine receptor)?
**A.** Not Active

**Q.** What about the IC50 [1] of the same compound?
**A.** Not Active

**Q.** What about the Ki [1] of the same compound?
**A.** Not Active

**Q.** And the IC50 (Cytochrome P450 2C9)?
**A.** Not Active

**Q.** What about the Ki (Cytochrome P450 2C9) of the same compound?
**A.** Not Active

**Q.** And the IC50 (Leukotriene C4 synthase)?
**A.** Not Active

**Q.** What about the IC50 (B2 bradykinin receptor) of the same compound?
**A.** Not Active

**Q.** What about the IC50 ([2]; read-out: IC50) of the same compound?
**A.** 2 µM

**Q.** What about the Ki ([2]; read-out: Ki) of the same compound?
**A.** 1.14 µM
